According to patent US10947252B2, “Inhibitors of KEAP1-Nrf2 protein-protein interaction” (Janssen Pharmaceutica NV, priority 2018, dated 2021):

Columns and labels:
[1] = system: Glo-Response ARE-luc2P HEK293 cell line; assay: ARE luciferase reporter cell-based assay; details: Homo sapiens, HEK293, 24 h, average of results obtained;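 also: luciferase signal tracks Nrf2 activation of the ARE once compounds disrupt KEAP1-Nrf2 binding, read with One-Glo reagent, DMSO serving as low control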
[2] = molecular target: Kelch domain of human KEAP1 (321-624 aa) (Homo sapiens (Human), UniProt Q14145); assay: KEAP1 KELCH ThermoFluor binding assay; details: KEAP Kelch […], 1,8-ANS, pH 7.0, average of results obtained, read-out: Tf Kd;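 also: Ligand-induced melting temperature shift of E. coli-expressed KEAP1 Kelch protein, Kd estimated from concentration-response curves of ΔTm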
Sequence of Kelch domain of human KEAP1 (321-624 aa) (Q14145 321-624): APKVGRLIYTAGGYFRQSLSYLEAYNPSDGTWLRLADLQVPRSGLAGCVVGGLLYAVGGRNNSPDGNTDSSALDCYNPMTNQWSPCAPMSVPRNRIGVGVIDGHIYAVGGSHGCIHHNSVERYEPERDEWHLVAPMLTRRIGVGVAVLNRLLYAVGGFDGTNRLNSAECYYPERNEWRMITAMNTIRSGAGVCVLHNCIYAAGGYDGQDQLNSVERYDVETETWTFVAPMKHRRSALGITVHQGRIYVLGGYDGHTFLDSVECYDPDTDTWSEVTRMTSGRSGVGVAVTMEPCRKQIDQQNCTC

SMILES	Kd [2]	EC50 [1]
Cc1ccc([C@H](c2ccn3c(C(F)(F)F)nnc3c2C)C(C)(C)C(=O)O)cc1CN1CC2(CCOCC2)Oc2nc(N[C@@H](C)CN3CCOCC3)c(C)cc2S1(=O)=O (single isomer, unassigned) [Example 363, (*R)-2,2-Dimethyl-3-(4-methyl-3-((8′-methyl-7′-(((S-1-morpholinopropan-2-yl)amino)-1′,1′-dioxido-2,3,5,6-tetrahydrospiro[pyran-4,4′-pyrido[2,3-b][1,4,5]oxathiazepin]-2′(3′H)-yl)methyl)phenyl)-3-(8-methyl-3-(trifluoromethyl)-[1,2,4]triazolo[4,3-a]pyridine-7-yl)propanoic Acid]	< 1 nM	12.9 nM
Cc1ccc([C@H](c2ccn3c(C(F)(F)F)nnc3c2C)C(C)(C)C(=O)O)cc1CN1CC2(CCOCC2)Oc2nc(NCCN3CCOCC3)c(C)cc2S1(=O)=O (single isomer, unassigned) [Example 365, (*R)-2,2-Dimethyl-3-(4-methyl-3-((8′-methyl-7′-((2-morpholinoethyl)amino)-1′,1′-dioxido-2,3,5,6-tetrahydrospiro[pyran-4,4′-pyrido[2,3-b][1,4,5]oxathiazepin]-2′(3′H)-yl)methyl)phenyl)-3-(8-methyl-3-(trifluoromethyl)-[1,2,4]triazolo[4,3-a]pyridine-7-yl)propanoic Acid]	< 1 nM	23.9 nM
Cc1ccc([C@H](c2ccn3c(C(F)(F)F)nnc3c2C)C(C)(C)C(=O)O)cc1CN1CC2(CCOCC2)Oc2nc(NCCN3CCNCC3)c(C)cc2S1(=O)=O (single isomer, unassigned) [Example 366]	< 1 nM	407 nM
Cc1ccc([C@H](c2ccn3c(C(F)(F)F)nnc3c2C)C(C)(C)C(=O)O)cc1CN1CC2(CCOCC2)Oc2nc(N[C@@H](C)CN3CCCC3)c(C)cc2S1(=O)=O (single isomer, unassigned) [Example 367, (*R)-2,2-Dimethyl-3-(4-methyl-3-((8′-methyl-1′,1′-dioxido-7′-(((S)-1-(pyrrolidine-1-yl)propan-2-yl)amino)-2,3,5,6-tetrahydrospiro[pyran-4,4′-pyrido[2,3-b][1,4,5]oxathiazepin]-2′(3′H)-yl)methyl)phenyl)-3-(8-methyl-3-(trifluoromethyl)-[1,2,4]triazolo[4,3-a]pyridine-7-yl)propanoic Acid]	< 1 nM	78.6 nM
Cc1ccc([C@H](c2ccn3c(C(F)(F)F)nnc3c2C)C(C)(C)C(=O)O)cc1CN1CC2(CCOCC2)Oc2nc(OCCN3CCNCC3)ccc2S1(=O)=O (single isomer, unassigned) [Example 368, (*R)-3-(3-((1′,1′-Dioxido-7′-(2-(piperazin-1-yl)ethoxy)-2,3,5,6-tetrahydrospiro[pyran-4,4′-pyrido[2,3-b][1,4,5]oxathiazepin]-2′(3′H)-yl)methyl)-4-methylphenyl)-2,2-dimethyl-3-(8-methyl-3-(trifluoromethyl)-[1,2,4]triazolo[4,3-a][pyridine-7-yl)propanoic Acid]	< 1 nM	256 nM
Cc1ccc([C@H](c2ccn3c(C(F)(F)F)nnc3c2C)C(C)(C)C(=O)O)cc1CN1CC2(CCOCC2)Oc2nc(OCCC3CCNCC3)c(C)cc2S1(=O)=O (single isomer, unassigned) [Example 369, (*R)-2,2-Dimethyl-3-(4-methyl-3-(8′-methyl-1′,1′-dioxido-7′-(2-(piperidin-4-yl)ethoxy)-2,3,5,6-tetrahydrospiro[pyran-4,4′-pyrido[2,3-b][1,4,5]oxathiazepin]-2′(3′H)-yl)methyl)-4-methylphenyl)-2,2-dimethyl-3-(8-methyl-3-(trifluoromethyl)-[1,2,4]triazolo[4,3-a][pyridine-7-yl)propanoic Acid]	< 1 nM	176 nM
Cc1ccc([C@@H](c2ccn3c(C(F)(F)F)nnc3c2C)C(C)(C)C(=O)O)cc1CN1CC2(CC2)Oc2nc(OCCN3CCCCC3)ccc2S1(=O)=O (single isomer, unassigned) [Example 371, (*S)-3-(3-1′,1′-Dioxido-7′-(2-(piperidin-1-yl)ethoxy)spiro[cyclopropane-1,4′-pyrido[2,3-b][1,4,5]oxathiazepin]-2′(3′H)-yl)methyl)-4-methylphenyl)-2,2-dimethyl-3-(8-methyl-3-(trifluoromethyl)-[1,2,4]triazolo[4,3-a][pyridine-7-yl)propanoic Acid]	< 1 nM	6 nM
Cc1ccc([C@@H](c2ccn3c(C(F)(F)F)nnc3c2C)C(C)(C)C(=O)O)cc1CN1CC2(CC2)Oc2nc(OCCN3CCCC3)c(C)cc2S1(=O)=O (single isomer, unassigned) [Example 373, (*S)-2,2-Dimethyl-3-(4-methyl-3-((8′-methyl-1′,1′-dioxido-7′-(2-(pyrrolidin-1-yl)ethoxy)spiro[cyclopropane-1,4′-pyrido[2,3-b][1,4,5]oxathiazepin]-2′(3′H)-yl)methyl)phenyl)-3-(8-methyl-3-(trifluoromethyl)-[1,2,4]triazolo[4,3-a]pyridine-7-yl)propanoic Acid]	< 1 nM	5.4 nM
COC1CCN(CCOc2nc3c(cc2C)S(=O)(=O)N(Cc2cc([C@@H](c4ccn5c(C(F)(F)F)nnc5c4C)C(C)(C)C(=O)O)ccc2C)CC2(CC2)O3)CC1 (single isomer, unassigned) [Example 378, (*S)-3-(3-((7′-(2-(4-Methoxypiperidin-1-yl)ethoxy)-8′-methyl-1′,1′-dioxidospiro[cyclopropane-1,4′-pyrido[2,3-b][1,4,5]oxathiazepin]-2′(3′H)-yl)methyl)-4-methylphenyl)-2,2-dimethyl-3-(8-methyl-3-(trifluoromethyl)-[1,2,4]triazolo[4,3-a]pyridine-7-yl)propanoic Acid]	< 1 nM	4 nM

The next lines start with results.

Kd [2]	SMILES	EC50 [1]
< 1 nM	Cc1ccc([C@@H](c2ccn3c(C(F)(F)F)nnc3c2C)C(C)(C)C(=O)O)cc1CN1CC2(CCOCC2)Oc2nc(OCCN3CCCC3)c(C)cc2S1(=O)=O (single isomer, unassigned) [Example 370, (*S)-2,2-Dimethyl-3-(4-methyl-3-((8′-methyl-1′,1′-dioxido-7′-(2-(pyrrolidin-1-yl)ethoxy)-2,3,5,6-tetrahydrospiro[pyran-4,4′-pyrido[2,3-b][1,4,5]oxathiazepin]-2′(3′H)-yl)methyl)-4-methylphenyl)-2,2-dimethyl-3-(8-methyl-3-(trifluoromethyl)-[1,2,4]triazolo[4,3-a][pyridine-7-yl)propanoic Acid]	11.3 nM
< 1 nM	Cc1ccc([C@@H](c2ccn3c(C(F)(F)F)nnc3c2C)C(C)(C)C(=O)O)cc1CN1CC2(CC2)Oc2nc(OCCN3CCCCC3)c(C)cc2S1(=O)=O (single isomer, unassigned) [Example 372, (*S)-2,2-Dimethyl-3-(4-methyl-3-((8′-methyl-1′,1′-dioxido-7′-(2-(piperidin-1-yl)ethoxy)spiro[cyclopropane-1,4′-pyrido[2,3-b][1,4,5]oxathiazepin]-2′(3′H)-yl)methyl)phenyl)-3-(8-methyl-3-(trifluoromethyl)-[1,2,4]triazolo[4,3-a]pyridine-7-yl)propanoic Acid]	2.9 nM
< 1 nM	Cc1ccc([C@@H](c2ccn3c(C(F)F)nnc3c2C)C(C)(C)C(=O)O)cc1CN1CC2(CC2)Oc2nc(OCCN3CCCCC3)c(C)cc2S1(=O)=O (single isomer, unassigned) [Example 374, (*S)-3-(3-(Difluoromethyl)-8-methyl-[1,2,4]triazolo[4,3-a]pyridine-7-yl)-2,2-dimethyl-3-(4-methyl-3-((8′-methyl-1′,1′-dioxido-7′-(2-(piperidin-1-yl)ethoxy)spiro[cyclopropane-1,4′-pyrido[2,3-b][1,4,5]oxathiazepin]-2′(3′H)-yl)methyl)phenyl)propanoic Acid]	4.8 nM
< 1 nM	Cc1ccc([C@@H](c2ccn3c(C(F)F)nnc3c2C)C(C)(C)C(=O)O)cc1CN1CC2(CC2)Oc2nc(OCCN3CCCC3)c(C)cc2S1(=O)=O (single isomer, unassigned) [Example 375, (*S)-3-(3-(Difluoromethyl)-8-methyl-[1,2,4]triazolo[4,3-a]pyridine-7-yl)-2,2-dimethyl-3-(4-methyl-3-((8′-methyl-1′,1′-dioxido-7′-(2-(pyrrolidin-1-yl)ethoxy)spiro[cyclopropane-1,4′-pyrido[2,3-b][1,4,5]oxathiazepin]-2′(3′H)-yl)methyl)phenyl)propanoic Acid]	11.5 nM
< 1 nM	Cc1ccc([C@@H](c2ccn3c(C(F)F)nnc3c2C)C(C)(C)C(=O)O)cc1CN1CC2(CCOCC2)Oc2nc(OCCN3CCCC3)c(C)cc2S1(=O)=O (single isomer, unassigned) [Example 377, (*S)-3-(3-(Difluoromethyl)-8-methyl-[1,2,4]triazolo[4,3-a]pyridine-7-yl)-2,2-dimethyl-3-(4-methyl-3-((8′-methyl-1′,1′-dioxido-7′-(2-(pyrrolidin-1-yl)ethoxy)-2,3,5,6-tetrahydrospiro[pyran-4,4′-pyrido[2,3-b][1,4,5]oxathiazepin]-2′(3′H)-yl)methyl)phenyl)propanoic Acid]	44.9 nM
< 1 nM	Cc1ccc([C@@H](c2ccn3c(C(F)F)nnc3c2C)C(C)(C)C(=O)O)cc1CN1CC2(CCOCC2)Oc2nc(OCCN3CCCCC3)c(C)cc2S1(=O)=O (single isomer, unassigned) [Example 379, (*S)-3-(3-(Difluoromethyl)-8-methyl-[1,2,4]triazolo[4,3-a]pyridine-7-yl)-2,2-dimethyl-3-(4-methyl-3-((8′-methyl-1′,1′-dioxido-7′-(2-(piperidin-1-yl)ethoxy)-2,3,5,6-tetrahydrospiro[pyran-4,4′-pyrido[2,3-b][1,4,5]oxathiazepin]-2′(3′H)-yl)methyl)phenyl)propanoic Acid]	12.3 nM
